Measurements from article PMC12748989 (Nature Communications, 2025).

Tests used:
[1] = system: PBMC; details: 12.5 µM
[2] = system: MDA-MB-231 cells

Structure (SMILES)	Average (percentage cell inhibition), Mastoparan PBMC [1]	Average (percentage cell inhibition), Dmastoparan MDA-MB231 12.5uM [2]
CC[C@H](C)[C@H](N)C(=O)N[C@@H](CC(N)=O)C(=O)N[C@@H](CC(C)C)C(=O)N[C@@H](CCCCN)C(=O)N[C@@H](C)C(=O)N[C@@H](CC(C)C)C(=O)N[C@H](C(=O)N[C@@H](C)C(=O)N[C@@H](CC(C)C)C(=O)N[C@@H](C)C(=O)N[C@@H](CCCCN)C(=O)N[C@@H](CCCCN)C(=O)N[C@H](C(=O)N[C@@H](CC(C)C)C(N)=O)[C@@H](C)CC)[C@@H](C)O [T7]	3.741%	29.9324%
CC[C@H](C)[C@H](N)C(=O)N[C@@H](CC(N)=O)C(=O)N[C@@H](CC(C)C)C(=O)N[C@@H](CCCCN)C(=O)N[C@@H](C)C(=O)N[C@@H](CC(C)C)C(=O)N[C@@H](C)C(=O)N[C@H](C(=O)N[C@@H](CC(C)C)C(=O)N[C@@H](C)C(=O)N[C@@H](CCCCN)C(=O)N[C@@H](CCCCN)C(=O)N[C@H](C(=O)N[C@@H](CC(C)C)C(N)=O)[C@@H](C)CC)C(C)C [V8]	11.0844%	43.0954%
CC[C@H](C)[C@H](N)C(=O)N[C@@H](CC(N)=O)C(=O)N[C@@H](CC(C)C)C(=O)N[C@@H](CCCCN)C(=O)N[C@@H](C)C(=O)N1CCC[C@H]1C(=O)N[C@@H](C)C(=O)N[C@@H](C)C(=O)N[C@@H](CC(C)C)C(=O)N[C@@H](C)C(=O)N[C@@H](CCCCN)C(=O)N[C@@H](CCCCN)C(=O)N[C@H](C(=O)N[C@@H](CC(C)C)C(N)=O)[C@@H](C)CC [P6]	-8.854%	-16.4349%
CC[C@H](C)[C@H](N)C(=O)N[C@@H](CC(N)=O)C(=O)N[C@@H](CC(C)C)C(=O)N[C@@H](CCCCN)C(=O)N[C@@H](C)C(=O)N[C@@H](CC(C)C)C(=O)N[C@@H](C)C(=O)N[C@@H](C)C(=O)N[C@@H](CC(C)C)C(=O)N[C@@H](C)C(=O)N[C@@H](CCCCN)C(=O)N[C@@H](CCCCN)C(=O)N[C@H](C(=O)N[C@@H](CCCCN)C(N)=O)[C@@H](C)CC [K14]	6.4564%	21.2164%
CC[C@H](C)[C@H](N)C(=O)N[C@@H](CO)C(=O)N[C@@H](CC(C)C)C(=O)N[C@@H](CCCCN)C(=O)N[C@@H](C)C(=O)N[C@@H](CC(C)C)C(=O)N[C@@H](C)C(=O)N[C@@H](C)C(=O)N[C@@H](CC(C)C)C(=O)N[C@@H](C)C(=O)N[C@@H](CCCCN)C(=O)N[C@@H](CCCCN)C(=O)N[C@H](C(=O)N[C@@H](CC(C)C)C(N)=O)[C@@H](C)CC [S2]	20.6714%	39.9159%
CC[C@H](C)[C@H](N)C(=O)N[C@@H](CC(N)=O)C(=O)N[C@@H](CC(C)C)C(=O)N[C@@H](CO)C(=O)N[C@@H](C)C(=O)N[C@@H](CC(C)C)C(=O)N[C@@H](C)C(=O)N[C@@H](C)C(=O)N[C@@H](CC(C)C)C(=O)N[C@@H](C)C(=O)N[C@@H](CCCCN)C(=O)N[C@@H](CCCCN)C(=O)N[C@H](C(=O)N[C@@H](CC(C)C)C(N)=O)[C@@H](C)CC [S4]	7.7%	28.0357%
CC[C@H](C)[C@H](N)C(=O)N[C@@H](CC(N)=O)C(=O)N[C@@H](CC(C)C)C(=O)N[C@@H](CCCCN)C(=O)N[C@@H](C)C(=O)N[C@@H](Cc1ccc(O)cc1)C(=O)N[C@@H](C)C(=O)N[C@@H](C)C(=O)N[C@@H](CC(C)C)C(=O)N[C@@H](C)C(=O)N[C@@H](CCCCN)C(=O)N[C@@H](CCCCN)C(=O)N[C@H](C(=O)N[C@@H](CC(C)C)C(N)=O)[C@@H](C)CC [Y6]	-4.904%	22.8055%
CC[C@H](C)[C@H](N)C(=O)N[C@@H](CC(N)=O)C(=O)N[C@@H](CC(C)C)C(=O)N[C@@H](CCCCN)C(=O)N[C@@H](C)C(=O)N[C@@H](CC(C)C)C(=O)N[C@@H](C)C(=O)N[C@@H](C)C(=O)N[C@@H](CC(C)C)C(=O)N[C@@H](CC(N)=O)C(=O)N[C@@H](CCCCN)C(=O)N[C@@H](CCCCN)C(=O)N[C@H](C(=O)N[C@@H](CC(C)C)C(N)=O)[C@@H](C)CC [N10]	1.8653%	9.754%
CC[C@H](C)[C@H](N)C(=O)N[C@@H](CC(N)=O)C(=O)N[C@@H](CC(C)C)C(=O)N[C@@H](CCCCN)C(=O)N[C@@H](C)C(=O)N[C@@H](CC(C)C)C(=O)N[C@@H](C)C(=O)N[C@@H](C)C(=O)N[C@@H](CC(C)C)C(=O)N[C@@H](C)C(=O)N[C@@H](CCCCN)C(=O)N[C@@H](CCCCN)C(=O)N[C@@H](CC(N)=O)C(=O)N[C@@H](CC(C)C)C(N)=O [N13]	7.072%	29.0846%
CC[C@H](C)[C@H](N)C(=O)N[C@@H](CC(N)=O)C(=O)N[C@@H](CC(C)C)C(=O)N[C@@H](CCCCN)C(=O)N[C@@H](C)C(=O)N[C@@H](CC(C)C)C(=O)N[C@@H](C)C(=O)N[C@@H](C)C(=O)N[C@@H](CC(C)C)C(=O)N[C@@H](C)C(=O)N[C@@H](CCCCN)C(=O)N[C@@H](CC(C)C)C(=O)N[C@H](C(=O)N[C@@H](CC(C)C)C(N)=O)[C@@H](C)CC [L12]	80.1821%	85.0992%
CC[C@H](C)[C@H](N)C(=O)N[C@@H](CC(C)C)C(=O)N[C@@H](CC(C)C)C(=O)N[C@@H](CCCCN)C(=O)N[C@@H](C)C(=O)N[C@@H](CC(C)C)C(=O)N[C@@H](C)C(=O)N[C@@H](C)C(=O)N[C@@H](CC(C)C)C(=O)N[C@@H](C)C(=O)N[C@@H](CCCCN)C(=O)N[C@@H](CCCCN)C(=O)N[C@H](C(=O)N[C@@H](CC(C)C)C(N)=O)[C@@H](C)CC [L2]	76.9101%	95.7612%
CC[C@H](C)[C@H](NC(=O)[C@H](CCCCN)NC(=O)[C@H](CCCCN)NC(=O)[C@H](C)NC(=O)[C@H](CC(C)C)NC(=O)[C@H](C)NC(=O)[C@H](C)NC(=O)[C@H](CC(C)C)NC(=O)[C@H](C)NC(=O)[C@H](CCCCN)NC(=O)[C@H](CC(C)C)NC(=O)[C@H](CC(N)=O)NC(=O)[C@@H](N)C(C)C)C(=O)N[C@@H](CC(C)C)C(N)=O [V1]	10.9012%	28.5856%
CC[C@H](C)[C@H](NC(=O)[C@H](CCCCN)NC(=O)[C@H](CCCCN)NC(=O)[C@H](C)NC(=O)[C@H](CC(C)C)NC(=O)[C@H](C)NC(=O)[C@H](C)NC(=O)[C@H](CC(C)C)NC(=O)[C@H](C)NC(=O)[C@H](CCCCN)NC(=O)[C@H](CC(C)C)NC(=O)[C@H](CC(N)=O)NC(=O)[C@@H](N)Cc1ccc(O)cc1)C(=O)N[C@@H](CC(C)C)C(N)=O [Y1]	14.8394%	48.2987%
CC[C@H](C)[C@H](N)C(=O)N[C@@H](CC(N)=O)C(=O)N[C@@H](CC(C)C)C(=O)N[C@@H](CCCCN)C(=O)N[C@@H](CO)C(=O)N[C@@H](CC(C)C)C(=O)N[C@@H](C)C(=O)N[C@@H](C)C(=O)N[C@@H](CC(C)C)C(=O)N[C@@H](C)C(=O)N[C@@H](CCCCN)C(=O)N[C@@H](CCCCN)C(=O)N[C@H](C(=O)N[C@@H](CC(C)C)C(N)=O)[C@@H](C)CC [S5]	9.929%	26.0666%
